Series [1] is described as follows: Human Phase 1 pharmacokinetics of GC4403. It is filed as in vivo. The settings on record: both sexes, plasma; for AUC(0-t): read-out: AUC0-24 h. On the procedure:
In a Phase 1 randomized, double-blind, placebo-controlled single rising dose safety, tolerability and pharmacokinetics study, 54 healthy male and female subjects were dosed from 2.2 to 25 mg of GC4403 administered intravenously over 30 minutes. Disposition of GC4403 is multi-exponential and follows linear pharmacokinetics with generally proportional increases in AUC and Cmax with increasing dose over the dose ranges studied. […] GC4403 is excreted unchanged in the urine and accounts for approximately 9 to 17% of the dose administered. No significant cardiovascular or vital sign effects, no significant physical examination abnormalities, and no significant abnormalities in routine clinical laboratory assessments were observed. Facial tingling, generalized tingling, paraesthesias and facial warmth were reported in a dose responsive manner, occurring at the 16.7 and 25 mg GC4403 doses.
As part of the conduct of the Phase 1a clinical studies for GC4403 and GC4419 described in the Examples herein, plasma samples were collected for measuring the concentration of parent compounds (GC4403 and GC4419) after intravenous infusion. Table 3 illustrates the pharmacokinetic parameter, area under the curve (AUC), representing the total exposure of the subject to the drugs over time.

A short description of series [2]: Kinetic stability (dissociation of Mn(II) from ligand). It is filed as physicochemical. The settings on record: second-order rate constant for dissociation of Mn(II) from the ligand, in water.
Series [3] can be described thus: Catalytic rate constant for the dismutation of superoxide. The format is biochemical. The note with it: pH = 7.4.
Series [4] can be described thus: Solubility (Table 1). The format is physicochemical.
In series [5] the test system is HEK-293 cells. The series can be described thus: Anti-proliferative activity in vitro. It is filed as cell-based. The settings on record: 72 hour incubation, LDH assay. On the procedure:
Materials and Methods: HEK-293 (CRL-1573) cells were obtained from ATCC and cultured according to ATCC instructions. Complete growth medium consisted of RPMI 1640 supplemented to 10% with fetal bovine serum (FBS). All cell incubations were at 37° C. in 95% air: 5% CO2. Two days before the start of a proliferation experiment, 10^3 HEK-293 cells in exponential growth phase were plated into each well of a 96-well plate. To synchronize cell division, the cells were maintained in complete growth medium for 24 hours at which time the cell monolayers were rinsed once with growth medium without FBS and then incubated overnight in media without FBS. The next morning GC4419 or GC4403 in complete growth medium or complete growth medium alone was added. The plates were incubated for 72 hour, after which time cell numbers were determined using an LDH assay kit. “Cell number” on FIG. 3 represents absorbance at 490 nm.

The test system of series [6] is TNF-α. The series can be described thus: Plasma TNF-α in the collagen induced arthritis model. It is filed as in vivo, Male Lewis rats. As to the method: Male Lewis rats (160-180 g) were used for this study. Collagen induced arthritis (CIA) was induced as follows: Bovine type II collagen (CII; Sigma) was dissolved in 0.1 M acetic acid at 2 mg/mL by stirring overnight at 4 C. Rats were immunized with an emulsion of 2 mg/mL CII in incomplete Freund's adjuvant (IFA; Sigma). The emulsion was prepared by homogenizing one part CII into one part IFA at 4 C. On day 1, rats were injected intradermally at the base of the tail with 100 μL of the emulsion. On day 21, a second injection of CII in IFA was administered at the base of the tail. GC4403 and GC4419 were prepared fresh, dissolved in 26 mM sodium bicarbonate buffered saline (Vehicle). All drugs were given by intraperitoneal injection at 1 mL/kg. Animals were randomly divided into groups (n=10 per group). GC4403 and GC4419 were administered once daily at 2, 5 and 10 mg/kg from days 25 through 35.
TNF-α levels were measured from plasma on day 35. The assay was conducted using a colorimetric ELISA kit (Calbiochem-Novabiochem) having a detection limit of 5 pg/mL. Values were expressed as mean±standard error of the mean of 10 observations. Data sets were examined by one-way ANOVA followed by a Bonferroni post-hoc test for multiple comparisons. A p-value of less than 0.05 was considered significant.

The subject of series [7] is Rats. The series can be described thus: Rat GC4419 14-day IV study. The settings on record: 20 mg/kg, Days 1 or 2. It is filed as in vivo. On the procedure:
(§1) GC4419 was evaluated in a 14-day GLP study in rats. GC4419 was administered to rats (10/sex/group) as 15 minute IV injections at dosages of 0, 5, 10 or 20 (15) mg/kg/day for 14 days. The control group received vehicle (sodium citrate in normal saline). Due to mortality at 20 mg/kg/day, the high dose group was decreased to 15 mg/kg/day on Day 3. Evaluations for compound-related effects were based on clinical observations, body weight, food consumption, hematology and clinical chemistry parameters, functional observation battery, organ weights and gross and microscopic postmortem examinations. […] There were no compound-related changes in organ weights or macroscopic or microscopic pathology. Based on the results of this study the NOAEL for GC4419 when administered to rats for 14 days as a 15 minute IV infusion was 15 mg/kg/day.

Series [8] can be described thus: Rat GC4419 14-day IV study. It is filed as in vivo. The settings on record: both sexes, rat, in vivo; rats, 15 minute IV infusion, 14 days. As to the method:
as §1

Where [9] appears, read: 26 mM bicarbonate buffered saline, aqueous buffer, at 25° C., pH 8.3, read-out: Solubility in 26 mM bicarbonate buffered saline.
[10] abbreviates: 2 mg/kg ip once daily days 25 through 35, measured day 35.
Setting [11] is: 5 mg/kg ip once daily days 25 through 35, measured day 35.
Where [12] appears, read: 10 mg/kg ip once daily days 25 through 35, measured day 35.

Read-outs that look alike come from different tables or passages of the source.

`[Cl][Mn-5]1234([Cl])[n+]5c6cccc5C[NH+]1[C@@H]1CCCC[C@H]1[NH+]2CC[NH+]3[C@@H]1CCCC[C@H]1[NH+]4C6` (some centres unmarked) [GC4403]: the AUC(0-t) in series [1] (2.2 mg IV over 30 minutes) was 184 ng·h/mL; in series [1] (3.3 mg IV over 30 minutes), 310 ng·h/mL; in series [1] (4.9 mg IV over 30 minutes) it was 453 ng·h/mL; in series [1] (7.4 mg IV over 30 minutes) it was 595 ng·h/mL; in series [1] (11.1 mg IV over 30 minutes), 1050 ng·h/mL; in series [1] (16.7 mg IV over 30 minutes), 1510 ng·h/mL. In addition, the AUC(0-t) in series [1] (25 mg IV over 30 minutes) was determined as 2560 ng·h/mL. In addition, the half-life in series [1] (IV over 30 minutes, read-out: terminal elimination half-life (converted)) is roughly 90 min. Moreover, the “Kinetic Stability (kdiss)” value in series [2] was “kdiss = 0.135 M^−1 s^−1”. Further, the “Catalytic rate constant for the dismutation for superoxide (kcat)” value in series [3] is given as “kcat = 1.2 × 10^+7 M^−1 sec^−1”. The solubility in series [4] (setting [9]) turned out to be 20 mg/mL; in series [4] (distilled water, water) it was 30 mg/mL. Also, in series [5], the “proliferation of HEK-293 cells” value is given as “equivalent dose-dependent decrease”. In addition, the “plasma TNF-α production” value is recorded as “did not significantly reduce” in series [6] (setting [10]), “significantly reduced” in series [6] (setting [11]) and “significantly reduced” in series [6] (setting [12]).

On to `[Cl][Mn-5]1234([Cl])[n+]5c6cccc5C[NH+]1[C@H]1CCCC[C@@H]1[NH+]2CC[NH+]3[C@H]1CCCC[C@@H]1[NH+]4C6` (some centres unmarked) [GC4419], for which the “Kinetic Stability (kdiss)” value in series [2] is listed as “kdiss = 0.135 M^−1 s^−1”. Further, the mortality result in series [7] is reported as “Several rats died”. This compound showed an NOAEL at 14 days in series [8] of 15 mg/kg/day. In addition, the “Catalytic rate constant for the dismutation for superoxide (kcat)” value in series [3] was “kcat = 1.2 × 10^+7 M^−1 sec^−1”. The solubility in series [4] (setting [9]) turned out to be 20 mg/mL; in series [4] (distilled water, water), 30 mg/mL. For the same compound, in series [5], the “proliferation of HEK-293 cells” value is listed as “equivalent dose-dependent decrease”. Moreover, the “plasma TNF-α production” value in series [6] (setting [10]) is recorded as “did not significantly reduce”; in series [6] (setting [11]) it was “significantly reduced”; in series [6] (setting [12]), “significantly reduced”.

What is called half-life is how long it takes for the measured level to halve. What is called solubility is the dissolved amount per volume that the medium holds. As usually defined, the NOAEL is the highest dose or exposure tested at which no adverse effect was seen.

The record behind these values is patent publication US11826373B2, “Methods for treatment of diseases” (Galera Labs, LLC, priority 2011, dated 2023).
